From patent US7576088B2, “Benzodioxole derivatives” (Hoffman-La Roche Inc., priority 2002, dated 2009)
pIC50: −log10 of the molar value. Read-outs that look alike come from different tables or passages of the source.

How the values were obtained:
[1] = target: T1, human cannabis CB1 receptor (Homo sapiens, UniProt P21554); experiment: Affinity for cannabinoid CB1 receptors, [3H]-CP-55,940 radioligand binding on HEK cell membranes
T1 construct: expressed in transfected cells; host or cells: human embryonic kidney (HEK) cells, Semliki Forest Virus system
T1 sequence (P21554 whole entry): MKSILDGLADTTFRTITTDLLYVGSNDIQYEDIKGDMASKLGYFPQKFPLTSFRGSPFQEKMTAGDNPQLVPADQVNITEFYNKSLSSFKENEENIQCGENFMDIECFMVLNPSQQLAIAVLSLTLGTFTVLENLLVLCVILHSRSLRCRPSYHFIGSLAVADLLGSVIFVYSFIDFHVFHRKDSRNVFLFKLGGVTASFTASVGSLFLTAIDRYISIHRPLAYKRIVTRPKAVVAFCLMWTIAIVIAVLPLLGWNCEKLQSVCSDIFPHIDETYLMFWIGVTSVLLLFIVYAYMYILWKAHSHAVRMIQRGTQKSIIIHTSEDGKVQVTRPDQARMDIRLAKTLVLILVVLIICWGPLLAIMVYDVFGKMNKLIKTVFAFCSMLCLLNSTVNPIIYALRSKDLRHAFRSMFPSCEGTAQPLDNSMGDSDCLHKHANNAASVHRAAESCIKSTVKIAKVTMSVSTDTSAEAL
Method: The affinity of the compounds of the invention for cannabinoid CB1 receptors was determined using membrane preparations of human embryonic kidney (HEK) cells in which the human cannabis CB1 receptor is transiently transfected using the Semliki Forest Virus system in conjunction with [3H]-CP-55,940 as radioligand. After incubation of a freshly prepared cell membrane preparation with the [3H]-ligand, with or without addition of compounds of the invention, separation of bound and free ligand was performed by filtration over glassfiber filters. Radioactivity on the filter was measured by liquid scintillation counting.

[2] = doses of 5, 10 and 20 mg daily; cited from earlier work
[3] = affinity for the CB1 receptor, read-out: IC50

Compound | pIC50 [1, 3] | further results
O=C(c1ccc2c(c1F)OC(c1ccccc1)(c1ccccc1)O2)N1CCOCC1 [Example 65, (4-fluoro-2,2-diphenyl-benzo[1,3]dioxol-5-yl)-morpholin-4-yl-methanone] | > 5.70 | 
Cc1c(C(=O)NN2CCCCC2)nn(-c2ccc(Cl)cc2Cl)c1-c1ccc(Cl)cc1 [SR 141716, Rimonabant] |  | body weight compared to placebo [2]: significantly reduced body weight
O=C(c1ccc2c(c1)OC(c1cccc(Cl)c1)(c1cccc(Cl)c1)O2)N1CCCCC1 |  | melting point: 54 °C
O=C(c1cc2c(cc1F)OC(c1ccc(F)cc1)(c1ccc(F)cc1)O2)N1CCCC1 [Example 164, [6-fluoro-2,2-bis-(4-fluoro-phenyl)-benzo[1,3]dioxol-5-yl]-pyrrolidin-1-yl-methanone] | > 5.70 | 
O=C(c1ccc2c(c1)OC(c1ccccc1)(c1ccccc1)O2)N1CCC2(CC1)OCCO2 [Example 46, (1,4-dioxa-8-aza-spiro[4.5]dec-8-yl)-(2,2-diphenyl-benzo[1,3]dioxol-5-yl)-methanone] |  | pIC50 [1]: > 5.70
O=C(c1cc2c(cc1F)OC(c1ccccc1F)(c1ccccc1F)O2)N1CC[C@H](O)C1 [Example 271] | > 5.70 | 
O=S(=O)(c1ccc2c(c1)OC(c1ccccc1)(c1ccccc1)O2)N1CCN(c2ccc(Cl)cc2Cl)CC1 [Example 4, 1-(2,4-dichloro-phenyl)-4-(2,2-diphenyl-benzo[1,3]dioxole-5-sulfonyl)-piperazine] | > 5.70 | 
O=S(=O)(c1ccc2c(c1)OC(c1ccc(F)cc1)(c1ccc(Cl)cc1Cl)O2)N1CCCCC1 (racemic) [Example 39, 1-[2-(2,4-dichloro-phenyl)-2-(4-fluoro-phenyl)-benzo[1,3]dioxole-5-sulfonyl]-piperidine] | > 5.70 | 
O=S(=O)(NCc1ccccc1)c1ccc2c(c1)OC(c1ccccc1)(c1ccccc1)O2 [Example 20, 2,2-diphenyl-benzo[1,3]dioxole-5-sulfonic acid benzylamide] | > 5.70 | 
O=S(=O)(c1ccc2c(c1)OC(c1ccccc1)(c1ccccc1)O2)N1CCc2ccccc2C1 [Example 18, 2-(2,2-diphenyl-benzo[1,3]dioxole-5-sulfonyl)-1,2,3,4-tetrahydro-isoquinoline] | > 5.70 | 
O=S(=O)(c1ccc2c(c1)OC(c1ccccc1)(c1ccccc1)O2)N1CCCN(c2ncc(C(F)(F)F)cc2Cl)CC1 [Example 22, 1-(3-chloro-5-trifluoromethyl-pyridin-2-yl)-4-(2,2-diphenyl-benzo[1,3]dioxole-5-sulfonyl)-[1,4]diazepane] | > 5.70 | 
O=C(c1cc2c(cc1F)OC(c1ccccc1Cl)(c1ccccc1Cl)O2)N1CCOCC1 |  | melting point: 98 °C
O=S(=O)(c1cc2c(cc1F)OC1(O2)c2ccccc2CCc2ccccc21)N1CCOCC1 [Example 234] | > 5.70 | 
Fc1ccc(C2=CCN(Cc3ccc4c(c3)OC(c3ccccc3)(c3ccccc3)O4)CC2)cc1 [Example 75, 1-(2,2-diphenyl-benzo[1,3]dioxol-5-yl-methyl)-4-(4-fluoro-phenyl)-1,2,3,6-tetrahydro-pyridine] | > 5.70 | 
O=C(c1cc2c(cc1F)OC(c1ccc(F)cc1)(c1ccc(Cl)cc1Cl)O2)N1CCOCC1 (stereo not drawn) [Example 108, [2-(2,4-dichloro-phenyl)-6-fluoro-2-(4-fluoro-phenyl)-benzo[1,3]dioxol-5-yl]-morpholin-4-yl-methanone] | > 5.70 | 
